According to patent US20070032505A1, “Crystalline form of gatifloxacin” (priority 2003, published 2007):
Where “and” joins values, the source holds several entries; their conditions need not be identical. Identical values can stand only once.

Legend:
[1] = stability test: water content (Karl-Fischer) and powder X-ray diffractogram in contact with the atmosphere at room temperature; type: physicochemical
Text: The new crystalline form of gatifloxacin which is obtainable by this process has an initial water content ranging between 0.8 and 1.6% and stabilises with a water content ranging between 2.5 and 4.5% by weight, when it is in contact with the atmosphere at room temperature and with a relative humidity comprised between 20 and 70%, and it remains stable for at least 2 months in such conditions.
The crystalline form of gatifloxacin object of the present invention is characterized by its powder X-ray diffractogram (FIG. 1), ^13C nuclear magnetic resonance spectrum (FIG. 3) and analysis of water content by the Karl-Fischer method.
For recording the powder X-ray diffractograms a PHILIPS X'Pert automatic diffractometer equipped with a Cu tube and a graphite secondary monochromator of the following technical specifications was used: • Cu wavelength Kα: 1.5419 Å; • receiving slit: 0.1 mm; • Soller: 0.04 radians; • dispersion slit and divergence slit: 1°
The tube worked at 40 kV and 50 mA. Sweeping was carried out continuously in the 2θ interval between 5 and 40° with pass of 0.03° and 1-second pass time.

[2] = disintegration and dissolution rate properties; type: physicochemical; settings: form containing between 2.5 and 4.5% of water by weight

- % water by weight ([1]; 3 hours, room temperature, in contact with the atmosphere): 2.2 % by weight
- % water by weight ([1]; 6 hours, room temperature, in contact with the atmosphere): 2.3 % by weight
- % water by weight ([1]; 3 days, room temperature, in contact with the atmosphere): 3.22 % by weight and 3.2 % by weight
- % water by weight ([1]; 13 days, room temperature, in contact with the atmosphere): 2.9 % by weight
- % water by weight ([1]; 17 days, room temperature, in contact with the atmosphere): 3.0 % by weight
- % water by weight ([1]; 68 days, room temperature, in contact with the atmosphere): 3.3 % by weight
- period of time to stabilise ([1]; longer if relative humidity lower than 20%): three
- powder X-ray diffractogram over the stability test period ([1]; room temperature, in contact with the atmosphere, up to 68 days): remains substantially unchanged
- time the water content remains stable ([1]; room temperature, relative humidity between 20 and 70%): at least 2 months
- % water by weight ([1]; time 0 (at the time of taking it out of the desiccator)): 1.5 % by weight
- properties of disintegration and dissolution rate [2]: excellent
SMILES: COc1c(N2CCNC(C)C2)c(F)cc2c(=O)c(C(=O)O)cn(C3CC3)c12 (centres unmarked) [form I gatifloxacin, 1-cyclopropyl-6-fluoro-1,4-dihydro-ε-methoxy-7-(3-methyl-1-piperazinyl)-4-oxo-3-quinolinecarboxylic acid]
